Source: US10828301B2, “2,4-pyrimidinediamine compounds and their uses” (Rigel Pharmaceuticals, Inc, priority 2002, dated 2020)

Assays:
[1] = test system: cultured human mast cells (CHMC); test: CHMC low cell density IgE activation: tryptase and LTC4 assays; type: cell-based; conditions: Homo sapiens, Mast cell, Low Density CHMC, anti-IgE activation, tryptase readout; read-out: CHMC anti-IgE Tryptase
In short: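 Cultured human mast cells at low density (1000-1500 per well) rested 1 h at 37° C, then stimulated with anti-IgE for 30 min at 37° C. Supernatant tryptase measured with fluorogenic substrate (30 min, room temperature); LTC4 quantified by ELISA on diluted supernatant.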

[2] = test system: cultured human mast cells (CHMC); test: CHMC low cell density ionomycin activation: tryptase assay; type: cell-based; conditions: Homo sapiens, Mast cell, Low Density CHMC, ionomycin activation, tryptase readout; read-out: CHMC Ionomycin Tryptase

| SMILES | IC50 [1] | IC50 [2] |
| --- | --- | --- |
| COc1ccc(Nc2nc(NCCN3CCN(Cc4ccccc4)CC3)ncc2F)cc1OC [Compound R940262, N2-[2-(N-Benzylpiperazino)ethyl]-N4-(3,4-dimethoxyphenyl)-5-fluoro-2,4-pyrimidinediamine] | > 10 µM | > 10 µM |
| CC(C)c1cccc(Nc2ncc(F)c(Nc3cccc(C(C)C)c3)n2)c1 [Compound R940297, N2,N4-Bis(3-isopropylphenyl)-5-fluoro-2,4-pyrimidinediamine] | 3.46 µM | 10 µM |
| COC(=O)c1cc(Nc2ncc(F)c(Nc3cccc(O)c3)n2)ccc1OC [Compound R940301, 5-Fluoro-N4-(3-hydroxyphenyl)-N2-(3-methyloxycarbonyl-4-methoxyphenyl)-2,4-pyrimidinediamine] | 1.98 µM | > 10 µM |
| CNC(=O)c1cc(Nc2nc(NC)ncc2F)ccc1OC [Compound R940304, 5-Fluoro-N4-(3-methylaminocarbonyl-4-methoxyphenyl)-N2-methyl-2,4-pyrimidinediamine] | > 10 µM | > 10 µM |
| COC(=O)c1cccc(Nc2ncc(F)c(Nc3cccc(C(=O)OC)c3)n2)c1 [Compound R945035, N2,N4-Bis(3-methoxycarbonylphenyl)-5-fluoro-2,4-pyrimidinediamine] | > 10 µM | > 10 µM |
| O=C(O)c1cccc(Nc2ncc(F)c(Nc3cccc(C(=O)O)c3)n2)c1 [Compound R945036, N2,N4-Bis(3-carboxyphenyl)-5-fluoro-2,4-pyrimidinediamine] | > 10 µM | > 10 µM |
| O=C(O)c1ccc(Nc2ncc(F)c(Nc3ccc(C(=O)O)cc3)n2)cc1 [Compound R945037, N2,N4-Bis(4-carboxyphenyl)-5-fluoro-2,4-pyrimidinediamine] | > 10 µM | > 10 µM |
| Cc1c(O)cccc1Nc1ncc(F)c(Nc2cccc(O)c2C)n1 [Compound R945038, N2,N4-Bis(3-hydroxy-2-methylphenyl)-5-fluoro-2,4-pyrimidinediamine] | > 10 µM | > 10 µM |
| CCNC(=O)Nc1ccc(Nc2ncc(F)c(Nc3ccc(NC(=O)NCC)cc3)n2)cc1 [Compound R945040, N2,N4-Bis[4-(ethylaminocarbonylamino)phenyl]-5-fluoro-2,4-pyrimidinediamine] | > 10 µM | > 10 µM |
| O=C(O)c1cc(Nc2ncc(F)c(Nc3ccc(O)c(C(=O)O)c3)n2)ccc1O [Compound R945041, N2,N4-Bis(3-carboxy-4-hydroxyphenyl)-5-fluoro-2,4-pyrimidinediamine] | > 10 µM | > 10 µM |
| COC(=O)c1cc(Nc2ncc(F)c(Nc3ccc(O)c(C(=O)OC)c3)n2)ccc1O [Compound R945043, N2,N4-Bis(4-hydroxy-3-methoxycarbonylphenyl)-5-fluoro-2,4-pyrimidinediamine] | > 10 µM | > 10 µM |
| CCNC(=O)Nc1cccc(Nc2ncc(F)c(Nc3cccc(NC(=O)NCC)c3)n2)c1 [Compound R945045, N2,N4-Bis[3-(ethylaminocarbonylamino)phenyl]-5-fluoro-2,4-pyrimidinediamine] | > 10 µM | > 10 µM |
| COC(=O)c1ccc(Nc2ncc(F)c(Nc3ccc(C(=O)OC)c(O)c3)n2)cc1O [Compound R945056, N2,N4-Bis[3-hydroxy-4-(methoxycarbonyl)phenyl]-5-fluoro-2,4-pyrimidinediamine] | 10 µM | > 10 µM |
| N#Cc1ccc(Nc2ncc(F)c(Nc3ccc(C#N)cc3)n2)cc1 [Compound R945057, N2,N4-Bis(4-cyanophenyl)-5-fluoro-2,4-pyrimidinediamine] | 10 µM | > 10 µM |
| O=C(O)c1ccc(Nc2ncc(F)c(Nc3ccc(C(=O)O)c(O)c3)n2)cc1O [Compound R945061, N2,N4-Bis(3-hydroxy-4-carboxyphenyl)-5-fluoro-2,4-pyrimidinediamine] | 10 µM | > 10 µM |
| Oc1cccc(Nc2nc(NCCc3c[nH]c4ccccc34)ncc2F)c1 [Compound R945117, 5-Fluoro-N4-(3-hydroxyphenyl)-N2-[2-(indol-3-yl)ethyl]-2,4-pyrimidinediamine] | 4.08 µM | > 10 µM |
| Fc1cnc(NCc2csc3ccccc23)nc1NCc1csc2ccccc12 [Compound R945145, N2,N4-Bis(benzothiophen-3-ylmethyl)-5-fluoro-2,4-pyrimidinediamine] | > 10 µM | > 10 µM |
| Oc1cccc(Nc2ncc(F)c(NCc3csc4ccccc34)n2)c1 [Compound R945146, N4-(Benzothiophen-3-ylmethyl)-5-fluoro-N2-(3-hydroxyphenyl)-2,4-pyrimidinediamine] | 3.76 µM | > 10 µM |
| Oc1cccc(Nc2ncc(F)c(NCc3cccnc3)n2)c1 [Compound R945147, 5-Fluoro-N2-(3-hydroxyphenyl)-N4-(3-pyridylmethyl)-2,4-pyrimidinediamine] | 3.55 µM | > 10 µM |
| Cc1cc(CNc2nc(Nc3cccc(O)c3)ncc2F)c(C)o1 [Compound R945151, N4-[(2,5-Dimethyl-3-furyl)methyl]-5-fluoro-N2-(3-hydroxyphenyl)-2,4-pyrimidinediamine] | 4.07 µM | > 10 µM |
| Fc1cnc(Nc2ccc(N3CCN(Cc4ccccc4)CC3)cc2)nc1Nc1ccc(N2CCN(Cc3ccccc3)CC2)cc1 [Compound R945152, N2,N4-Bis[4-(N-benzylpiperazino)phenyl]-5-fluoro-2,4-pyrimidinediamine] | 6.94 µM | > 10 µM |
| Cc1cc(CNc2ncc(F)c(Nc3cccc(O)c3)n2)c(C)o1 [Compound R945162, N2-[(2,5-Dimethyl-3-furyl)methyl]-5-fluoro-N4-(3-hydroxyphenyl)-2,4-pyrimidinediamine] | > 10 µM | > 10 µM |
| Oc1cccc(Nc2nc(NCc3csc4ccccc34)ncc2F)c1 [Compound R945164, N2-(Benzothiophen-3-ylmethyl)-5-fluoro-N4-(3-hydroxyphenyl)-2,4-pyrimidinediamine] | 10 µM | > 10 µM |
| Oc1cccc(Nc2nc(NCc3cccnc3)ncc2F)c1 [Compound R945165, 5-Fluoro-N4-(3-hydroxyphenyl)-N2-(3-pyridylmethyl)-2,4-pyrimidinediamine] | > 10 µM | > 10 µM |
| Oc1cccc(Nc2nc(NCc3ccccn3)ncc2F)c1 [Compound R945166, 5-Fluoro-N4-(3-hydroxyphenyl)-N2-(2-pyridylmethyl)-2,4-pyrimidinediamine] | > 10 µM | > 10 µM |

Stronger by IC50 [1], values ahead:

| IC50 [1] | IC50 [2] | SMILES |
| --- | --- | --- |
| 1.88 µM | > 10 µM | Fc1cnc(Nc2ccc3c(c2)OCCO3)nc1Nc1ccc(N2CCN(Cc3ccccc3)CC2)cc1 [Compound R945155, N4-[4-(N-Benzylpiperazino)phenyl]-N2-(3,4-ethylenedioxyphenyl)-5-fluoro-2,4-pyrimidinediamine] |
| 1.85 µM | > 10 µM | COC(=O)c1ccc(Nc2ncc(F)c(Nc3ccc(C(=O)OC)cc3)n2)cc1 [Compound R945034, N2,N4-Bis(4-methoxycarbonylphenyl)-5-fluoro-2,4-pyrimidinediamine] |
| 1.43 µM | > 10 µM | COC(=O)c1ccc(Nc2ncc(F)c(Nc3ccc(C(=O)OC)c(OC)c3)n2)cc1OC [Compound R945065, N2,N4-Bis(3-methoxy-4-methoxycarbonylphenyl)-5-fluoro-2,4-pyrimidinediamine] |
| 1.02 µM | > 10 µM | N#Cc1cccc(Nc2nc(Nc3cccc(O)c3)ncc2F)c1 [Compound R945109, N4-(3-Cyanophenyl)-5-fluoro-N2-(3-hydroxyphenyl)-2,4-pyrimidinediamine] |
| 0.95 µM | > 10 µM | N#Cc1cccc(Nc2ncc(F)c(Nc3cccc(C#N)c3)n2)c1 [Compound R945051, N2,N4-Bis(3-cyanophenyl)-5-fluoro-2,4-pyrimidinediamine] |
| 0.922 µM | 4.25 µM | Fc1cnc(Nc2ccc(N3CCN(Cc4ccccc4)CC3)cc2)nc1Nc1ccc2c(c1)OCCO2 [Compound R945163, N2-[4-(N-Benzylpiperazino)phenyl]-N4-(3,4-ethylenedioxyphenyl)-5-fluoro-2,4-pyrimidinediamine] |
| 0.862 µM | > 10 µM | CC(C)(C)C(=O)Nc1cccc(Nc2ncc(F)c(Nc3cccc(O)c3)n2)c1 [Compound R940275, N2-(3-tert-Butylcarbonylaminophenyl)-N4-(3-hydroxyphenyl)-5-fluoro-2,4-pyrimidinediamine] |
| 0.553 µM | 4.98 µM | COC(=O)c1cc2cc(Nc3ncc(F)c(Nc4cccc(C(C)C)c4)n3)ccc2o1 [Compound R940283, 5-fluoro-N4-(3-isopropylphenyl)-N2-(2-methoxycarbonylbenzofur-5-yl)-2,4-pyrimidinediamine] |
| 0.525 µM | 5.53 µM | COC(=O)c1cc2cc(Nc3ncc(F)c(Nc4cccc(C(C)(C)C)c4)n3)ccc2o1 [Compound R940281, N4-(3-tert-Butylphenyl)-5-fluoro-N2-(2-methoxycarbonylbenzofur-5-yl)-2,4-pyrimidinediamine] |
| 0.401 µM | 6.82 µM | Cc1cc(Nc2ncc(F)c(Nc3cccc(C(C)(C)C)c3)n2)cc(Cl)c1O [Compound R940271, N4-(3-tert-Butylphenyl)-N2-(3-chloro-4-hydroxy-5-methylphenyl)-5-fluoro-2,4-pyrimidinediamine] |
| 0.396 µM | > 10 µM | CNC(=O)c1cc2cc(Nc3ncc(F)c(Nc4cccc(C(C)(C)C)c4)n3)ccc2o1 [Compound R940291, N4-(3-tert-Butylphenyl)-5-fluoro-N2-[2-(N-methylamino)carbonylbenzofur-5-yl]-2,4-pyrimidinediamine] |
| 0.244 µM | > 10 µM | OCCOc1ccc(Nc2ncc(F)c(Nc3ccc4c(c3)OCCO4)n2)cc1 [Compound R945144, N4-(3,4-Ethylenedioxyphenyl)-5-fluoro-N2-[4-(2-hydroxyethyloxy)phenyl]-2,4-pyrimidinediamine] |
